Data set [1] can be described thus: AUC (0 to t) in mouse at 5.5 mg/kg, ip by HPLC/MS/MS analysis. Type of data set: ADME, organism-based. The conditions noted are these: in vivo.
The test system of data set [2] is NCI-H526. In words: In vivo inhibition of LSD1 in human NCI-H526 cells xenografted in nude mouse assessed as change in ANXA6 gene expression administrated daily for 5 days by qRT-PCR analysis. Type of data set: functional, organism-based. The note with it: dose 0.02-135 mg/kg, time 5.0 day. A general note: A xenograft is tissue or cells of one species grown in another, often human tumour cells in immunodeficient mice.

The test system of data set [3] is NCI-H526. Kind of data set: In vivo inhibition of LSD1 in human NCI-H526 cells xenografted in nude mouse assessed as change in TOX3 gene expression administrated daily for 5 days by qRT-PCR analysis. Type of data set: functional, organism-based. The note with it: dose 0.02-135 mg/kg, time 5.0 day.
Data set [4] can be described thus: Effect on cleaved PARP level in human NCI-H2171 cells assessed as fold change at 100 nM measured after 7 days by Western blot analysis (reference value: 1.00). Type of data set: functional. The conditions noted are these: time 7 day. In general terms: A western blot detects proteins with antibodies after separation by electrophoresis.
A short description of data set [5]: Effect on cleaved PARP level in human NCI-H526 cells assessed as relative expression at 100 nM measured after 7 days by Western blot analysis (reference value: 0.57). Format: functional. The note with it: time 7 day.
Data set [6] deals with NCI-H526. In words: Effect on global H3K4me2 level in human NCI-H526 cells at 10 to 1000 nM measured after 24 hrs by Western blot analysis. Type of data set: functional, cell-based. The note with it: dose 10-1000 nM.
Data set [7] is described as follows: Effect on cleaved PARP level in human NCI-H2171 cells assessed as relative expression at 1000 nM measured after 10 days by Western blot analysis (reference value: 0.02). Type of data set: functional. The conditions noted are these: time 10 day.
Data set [8] is described as follows: Effect on cleaved PARP level in human NCI-H526 cells assessed as relative expression at 1000 nM measured after 14 days by Western blot analysis (reference value: 0.66). Type of data set: functional. The conditions noted are these: time 14 day.
A short description of data set [9]: Toxicity in mouse xenografted with human NCI-H526 cells assessed as grooming behaviour at 1.5 mg/kg, po administered daily measured for 30 days. Type of data set: organism-based. The conditions noted are these: in vivo, 720 h, time 30 day.
Data set [10] relates to NCI-H526. In words: Upregulation of LSD1 signal enrichment at typical enhancers in human NCI-H526 cells at 1 uM. Type of data set: functional, cell-based.
Data set [11] can be described thus: Effect on cleaved PARP level in human NCI-H146 cells assessed as relative expression at 10 nM measured after 10 days by Western blot analysis (reference value: 0.27). Type of data set: functional. The conditions noted are these: time 10 day.
Data set [12] is described as follows: Effect on cleaved PARP level in human NCI-H526 cells assessed as relative expression at 10 nM measured after 7 days by Western blot analysis (reference value: 0.57). Type of data set: functional. The conditions noted are these: time 7 day.
A short description of data set [13]: Effect on cleaved PARP level in human NCI-H510 cells assessed as relative expression at 1000 nM measured after 14 days by Western blot analysis (reference value: 0.01). Format: functional, NCI-H510A. The note with it: time 14 day.
In a further data set the test system is NCI-H1417. Kind of data set: In vivo inhibition of LSD1 in human NCI-H1417 cells xenografted in nude mouse assessed as change in LBH gene expression measured after 24 hrs post single administration by qRT-PCR analysis. Type of data set: functional, organism-based. The conditions noted are these: dose 0.02-135 mg/kg.
Data set [14] is described as follows: Antitumor activity against human PDX L36 cells xenografted in mouse assessed as tumor growth inhibition at 1.5 mg/kg administered daily measured for 20 days relative to control. Format: functional. The note with it: PDX LX36, 480 h, time 20 day, read-out: TGI.

Calls of active or inactive are those of the source. The calls are words filed in the database; no cut-off is given here.

For orientation: AUC(0-t) means the area under the concentration-time curve up to a stated or last time point. Read a low AUC(0-t) as low exposure.

As to `c1ccc([C@@H]2C[C@H]2NC2CCNCC2)cc1`, the AUC(0-t) in [1] was 871 ng·h/mL.

For the compound `O=C(O)c1ccc(CN2CCC(CN[C@@H]3C[C@H]3c3ccccc3)CC2)cc1` [GSK2879552], the inhibition entry in the data set with NCI-H526 [2], with NCI-H526 [3] and in the data set on NCI-H1417 was “Dose-Dependent Effect” in each case. Further, in data set [4], the “fold change (FC)” value turned out to be 1.71. For the same compound, the Activity in data set [5] is 0.68; in data set [7] it was 0.02; in [8] it was 0.9; in [9], “Non-Toxic”; in [11], 0.33; in data set [12] it was 0.48. Also, the Activity in data set [13] is on record as 0.47. In addition, in the data set with NCI-H526 [6], the outcome was inactive. Moreover, the outcome in the data set on NCI-H526 [10] was Active. In data set [14], the inhibition in vivo at 1.5 mg/kg amounted to 19%.
